According to US7589077B2, “Antiviral nucleosides” (priority 2001, dated 2009):
Like-named read-outs stand apart in the source and are kept apart here.

Key:
[1] = tested on: VZV (Ellen); assay: CPE inhibition assay VZV (Ellen) in HFF cells; assay type: cell-based, varicella zoster virus
Experimental: (§1) Cytopathic effect (CPE) inhibition assays for HSV-1, HSV-2, HCMV and VZV were performed as follows: Low passage human foreskin fibroblasts (HFF) cells were seeded into 96 well tissue culture plates 24 h prior to use at a cell concentration of 2.5×10^4 cells per mL in 0.1 mL of minimal essential medium (MEM) supplemented with 10% fetal bovine serum (FBS). The cells were then incubated for 24 h at 37° C. in a CO2 incubator. After incubation, the medium was removed and 100 μL of MEM containing 2% FBS was added to all but the first row. In the first row, 125 μL of experimental drug was added in triplicate wells. Medium alone was added to both cell and virus control […]. After incubation, the medium was removed and 100 μl of MEM containing 2% FBS was added to all but the first row. Medium alone was added to both cell and virus control wells. 125 μl of Experimental drug was added in triplicate wells. The drug in the first row of wells was then diluted serially 1:5 throughout the remaining wells by transferring 25 μL using the Cetus Liquid Handling Machine. After dilution of drugs, 100 μL of the appropriate virus concentration was added to each well, excluding the cell control wells which received 100 μL of MEM. For HSY-1 and HSV-2 assays, the virus concentration utilized was 1000 PFU's per well. For CMV and VZV assays, the virus concentration added was 2500 PFU's per well. The plates were then incubated at 37° C. in a CO2 incubator for 3 days for HSV-1 and HSV-2, 10 days for VZV, or 14 days for CMV. After the incubation period, media was aspirated and the cells stained with a 0.1% crystal violet solution for 30 min. The stain was then removed and the plates were allowed to dry 24 h and then read on a Skatron Plate Reader at 620 nm.

[2] = tested on: CEM cells; assay: Cell cytotoxicity in CEM cells; assay type: cell-based; settings: Table 3a
[3] = tested on: human HBV; assay: HBV DNA replication in HepG2 2.2.15 cells; assay type: cell-based, hepatitis B virus; settings: Table 3a; read-out: % Inhibition of human HBV DNA replication in HepG2 2.2.15 cells EC50
Experimental: The compounds were assayed for a) their ability to inhibit DHBV DNA replication in duck hepatocytes, b) their ability to inhibit HBV DNA replication in HepG2 2.2.15 cells, c) the cell cytotoxicity in Vero cells, the cell viability in HFF cells, d) the cell proliferation in HFF cells, and e) the T cell proliferation (purified T cells, PHA stimulated). 3-TC was used as a control. Additional compounds described below in the Preparative Examples section were also tested, and the results are shown in Tables 2-4 below. The reference numbers for the compounds are found in the Preparative Examples.

[4] = tested on: Epstein-Barr Virus (EBV); assay: EBV immunofluorescence assay in DAUDI cells (P3HR-1 strain); assay type: cell-based
Experimental: The immunofluorescence assay, using monoclonal antibodies, for Epstein-Barr Virus (EBV) was performed as follows: DAUDI cells were infected with the P3HR-1 strain of EBV and the test drug was added after adsorption (45 min. at 37° C.) and washing of the cell cultures. These cultures were then incubated for 2 days in complete medium to allow viral gene expression. Following the 48 h incubation period, the number of cells in each sample were counted and smears were made. Monoclonal antibodies to the different early antigen (EA) components and VCA were than added to the cells, incubated and washed. This was followed by the addition of a fluorescein conjugated rabbit anti mouse Ig antibodies. The number of fluorescence positive cells in the smears were counted and the total number of cells in the cultures positive for EA or VCA were then calculated and compared.

[5] = tested on: HFF cells; assay: Cell viability in HFF cells (neutral red); assay type: cell-based, human
Experimental: Twenty-four hours prior to assay HFF cells were plated into 96 well plates at a concentration of 2.5×10^4 cells per well. […] The plates were incubated for 7 days in a CO2 incubator at 37° C. At this time the media/drug was aspirated and 200 μL/well of 0.01% neutral red in Dulbecco's Phosphate Buffered Saline (DPBS) was added. This was incubated in the CO2 incubator for 2 h, the dye was aspirated and the cells were washed using a Nunc Plate Washer. After removing the DPBS wash, […] of 50% EtOH: 1% glacial acetic acid in water was added. The plates were rotated for 15 min. and the optical densities were read at 550 nm on a plate reader.

[6] = tested on: Vero cells; assay: Cell cytotoxicity in Vero cells; assay type: cell-based; settings: Table 1
Experimental: (§2) The compounds were assayed for a) their ability to inhibit DHBV DNA replication in duck hepatocytes, b) their ability to inhibit HBV DNA replication in HepG2 2.2.15 cells, c) the cell cytotoxicity in Vero cells, the cell viability in HFF cells, d) the cell proliferation in HFF cells, and e) the T cell proliferation (purified T cells, PHA stimulated). 3-TC was used as a control.

[7] = tested on: duck hepatitis B virus (DHBV); assay: DHBV DNA replication in primary duck hepatocytes (dot blot hybridization); assay type: cell-based
Experimental: A series of compounds were synthesized and assayed for activity against duck hepatitis B virus (DHBV). […] Test compounds were added to the hepatocyte cultures on day 2 and maintained in culture with media changed every second day until day 12. Cell were harvested at day 14 and lysed with buffer containing 1% SDS. DNA was isolated from the lysate and dot blot hybridization was performed using a DHBV (32P) DNA probe. […]
as §2

[8] = tested on: HSV-1 (KOSSB) HSV-TK−; assay: microbe, parasite or virus in culture; assay type: cell-based, Herpes simplex virus type-1; settings: Table 4
Experimental: as §1, with “The” for “Cytopathic effect (CPE) inhibition assays for HSV-1, HSV-2, HCMV and VZV were performed as follows: Low passage human foreskin fibroblasts (HFF) cells were seeded into 96 well tissue culture plates 24 h prior to use at a cell concentration of 2.5×10^4 cells per mL in 0.1 mL of minimal essential medium (MEM) supplemented with 10% fetal bovine serum (FBS). The”

[9] = tested on: HSV-1 (KOS) HSV-TK+; assay: HSV-1 (KOS) HSV-TK+ antiviral assay; assay type: cell-based, Herpes simplex virus type-1; settings: Table 4
Experimental: as §1

[10] = tested on: HCMV (AD169); assay: CPE inhibition assay HCMV (AD169) in HFF cells; assay type: cell-based, human cytomegalovirus; settings: Table 4
Experimental: as §1

[11] = tested on: HSV-1 (E-377); assay: CPE inhibition assay HSV-1 (E-377) in HFF cells; assay type: cell-based, Herpes simplex virus type-1; settings: Table 4
Experimental: as §1

[12] = tested on: HSV-2 (MS); assay: CPE inhibition assay HSV-2 (MS) in HFF cells; assay type: cell-based, Herpes simplex virus type-2; settings: Table 4
Experimental: as §1

[13] = tested on: whole human PBLs; assay: Cell proliferation, whole human PBLs; assay type: cell-based; settings: Table 1

## CCO[C@@H]1C(Cl)C(=O)NC(=O)N1[C@H]1C[C@H](F)[C@@H](CO)O1 (single isomer, unassigned; (+)) [RB-2]
[1]; Table 3a
  VZV (Ellen) EC50: 0.3 µg/mL
[2]
  CC50: > 200 µM
[3]
  EC50: 2.8 µM
[4]; Table 3a
  EBV EC50: 0.15 to 0.3 µg/mL
[4]; Table 3a, in parentheses
  EBV EC90: 9.8 µg/mL
[5]; Table 3a, read-out: Cell viability HFF cells CC50
  CC50: > 330 µM

## (5R,6R)5-fluoro-O^6-5′-cyclo-5,6-dihydro-3′-azido-3′-deoxythymidine [Compound R-14]
[6]
  CC50: 100 to 200 µM
[7]
  % Inhibition of DHBV DNA replication in duck hepatocytes @10 μg/ml: 81.0%
[8]
  HSV-1 (KOSSB) HSV-TK− EC50: >50 µg/mL
[1]; Table 4
  VZV (Ellen) EC50: >100 µg/mL
[9]
  HSV-1 (KOS) HSV-TK+ EC50: >25 µg/mL
[4]; Table 4
  EBV EC50: <0.08 µg/mL
[10]
  HCMV (AD-169) EC50: >100 µg/mL
[5]; Table 1, read-out: Cell viability, HFF cells, CC50 μM
  CC50: > 350 µM
[11]
  HSV-1 (E-377) EC50, μg/ml: >100 μg/ml
[12]
  HSV-2 (MS) EC50: >100 µg/mL
[13]
  IC50: > 350 µM
